From US20030225152A1, “3-(Arylamino)methylene-1, 3-dihydro-2h-indol-2-ones as kinase inhibitors” (priority 2001, published 2003)

Tests used:
[1] = system: VEGF induced increases in intracellular calcium levels in HUVEC (human umbilical vein endothelial cells); test: VEGF Stimulated Ca++ Signal in vitro (FLIPR); assay type: cell-based; conditions: VEGF 5 ng/mL; for IC50: 0.01 to 10.0 μM
Summary of the method: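 HUVEC loaded with Fluo-4 (45 min, 37° C.), washed, then pre-incubated 30 min with compound (10 μM single dose or 0.01–10.0 μM; 0.1% DMSO) before 5 ng/mL VEGF. Fluorescence at 516 nm read by FLIPR; IC50 from % inhibition of max-min VEGF response.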

[2] = biological target: T1, cytoplasmic domain of the human VEGF receptor (VEGFR-2) (Homo sapiens, UniProt P35968); test: KDR Assay; assay type: biochemical; conditions: His-VEGFR-2; 3.6 μM ATP
T1 construct: The cytoplasmic domain of the human VEGF receptor (VEGFR-2) was expressed as a Histidine-tagged fusion protein; Histidine tag
T1 sequence (P35968 786-1356): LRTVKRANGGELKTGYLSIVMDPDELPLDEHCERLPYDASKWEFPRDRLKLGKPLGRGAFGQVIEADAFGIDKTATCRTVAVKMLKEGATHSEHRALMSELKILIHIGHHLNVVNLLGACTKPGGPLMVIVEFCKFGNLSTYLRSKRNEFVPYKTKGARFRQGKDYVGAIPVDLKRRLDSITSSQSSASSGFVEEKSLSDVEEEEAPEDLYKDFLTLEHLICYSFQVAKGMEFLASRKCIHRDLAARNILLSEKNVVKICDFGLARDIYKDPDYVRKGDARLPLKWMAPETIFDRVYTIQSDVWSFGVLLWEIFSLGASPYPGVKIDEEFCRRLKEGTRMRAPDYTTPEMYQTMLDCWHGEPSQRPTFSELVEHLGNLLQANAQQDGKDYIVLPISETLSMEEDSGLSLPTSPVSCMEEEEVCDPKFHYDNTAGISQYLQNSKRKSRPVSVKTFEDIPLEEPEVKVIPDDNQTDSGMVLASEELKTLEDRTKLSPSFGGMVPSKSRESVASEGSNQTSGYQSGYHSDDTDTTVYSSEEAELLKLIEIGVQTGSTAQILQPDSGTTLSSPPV
Summary of the method: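 His-tagged human VEGFR-2 cytoplasmic domain from baculovirus-infected insect cells, acting on poly-Glu-Tyr (4:1)-coated plates with 3.6 μM ATP in Hepes pH 7.4 with MgCl2/MnCl2 and 5% final DMSO, 10 min at 25 °C. Phosphotyrosine detected by peroxidase-conjugated antibody ELISA at 492 nm; IC50 from blank-subtracted OD versus concentration.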

Compound | IC50 [2] | IC50 [1] | inhibition at 10 µM ([1]; Homo sapiens) | IC50 ([1]; Homo sapiens)
O=C1Nc2ccc(Cl)cc2C1=CNc1ccc(CO)cc1 [Example 111, 5-Chloro-3-[(4-(hydoxymethyl)phenylamino)-methylene]-1,3-dihydro-indol-2-one] | 430 nM |  | 98.5% | 1170 nM
Cc1cccc2c1C(=CNc1ccc(CCO)cc1)C(=O)N2 [Example 113, 3-{[4-(2-Hydroxy-ethyl)-phenylamino]-methylene}-4-methyl-1,3-dihydro-indol-2-one] | 200 nM |  | 97.5% | 
CC(=O)Nc1ccc(NC=C2C(=O)Nc3ccc(Cl)cc32)cc1 [Example 114, N-{4-[(5-Chloro-2-oxo-1,2-dihydro-indol-3-ylidenemethyl)-amino]-phenyl}-acetamide] | 920 nM |  | 89% | 1930 nM
NS(=O)(=O)c1ccc(NC=C2C(=O)Nc3ccc(Cl)cc32)cc1 [Example 116, 4-[(5-Chloro-2-oxo-1,2-dihydro-indol-3-ylidenemethyl)-amino]-benzenesulfonamide] | 980 nM |  | 99.4% | 1640 nM
COc1ccc(NC=C2C(=O)Nc3cccc(C)c32)cc1O [Example 117, 3-[(3-Hydroxy-4-methoxy-phenylamino)-methylene]-4-methyl-1,3-dihydro-indol-2-one] | 310 nM |  | 97.7% | 
Cc1cccc2c1C(=CNc1ccc(OC(F)F)cc1)C(=O)N2 [Example 119, 3-{[4-(1,1-Difluoro-methoxy)-phenylamino]-methylene}-4-methyl-1,3-dihydro-indol-2-one] | 530 nM |  | 89.3% | 1340 nM
CCOc1ccc(NC=C2C(=O)Nc3cccc(C)c32)cc1 [Example 122, 3-[(4-Ethoxy-phenylamino)-methylene]-4-methyl-1,3-dihydro-indol-2-one] | 370 nM |  | 71.7% | 1540 nM
Cc1cccc2c1C(=CNc1ccc(C(C)C)cc1)C(=O)N2 [Example 123, 3-[(4-Isopropyl-phenylamino)-methylene]-4-methyl-1,3-dihydro-indol-2-one] | 590 nM |  | 49.9% | 4430 nM
Cc1ccc(NC=C2C(=O)Nc3cccc(C)c32)cc1O [Example 125, 3-[(3-Hydroxy-4-methyl-phenylamino)-methylene]-4-methyl-1,3-dihydro-indol-2-one] | 670 nM |  | 96.5% | 1860 nM
COc1ccc(NC=C2C(=O)Nc3cccc(C)c32)cc1OC [Example 126, 3-[(3,4-Dimethoxy-phenylamino)-methylene]-4-methyl-1,3-dihydro-indol-2-one] | 340 nM |  | 95.2% | 1220 nM
Cc1cccc2c1C(=CNc1ccc(C#N)cc1)C(=O)N2 [Example 128, 4-[(4-Methyl-2-oxo-1,2-dihydro-indol-3-ylidenemethyl)-amino]-benzonitrile] | 460 nM |  | 42.9% | 8260 nM
CC(=O)Nc1ccc(NC=C2C(=O)Nc3cccc(C)c32)cc1 [Example 130, N-{4-[(4-Methyl-2-oxo-1,2-dihydro-indol-3-ylidenemethyl)-amino]-phenyl}-acetamide] | 380 nM | 570 nM | 97.3% | ≤ 1000 nM
COc1ccc(NC=C2C(=O)Nc3cccc(C)c32)c(F)c1 [Example 135, 3-[(2-Fluoro-4-methoxy-phenylamino)-methylene]-4-methyl-1,3-dihydro-indol-2-one] | 7770 nM |  | 28% | 
Cc1cccc2c1C(=CNc1ccc(CCCC(=O)O)cc1)C(=O)N2 [Example 140, 4-{4-[(4-Methyl-2-oxo-1,2-dihydro-indol-3-ylidenemethyl)-amino]-phenyl}-butyric acid] | 400 nM |  | 96.9% | 
O=C(O)CCc1cccc(NC=C2C(=O)Nc3ccc(Cl)cc32)c1 [Example 143, 3-{3-[(5-Chloro-2-oxo-1,2-dihydro-indol-3-ylidenemethyl)-amino]-phenyl}-propionic acid] | 520 nM |  | 66.9% | 7610 nM
O=C(O)CCc1ccc(NC=C2C(=O)Nc3ccccc32)cc1 [Example 144, 3-{4-[(2-Oxo-1,2-dihydro-indol-3-ylidenemethyl)-amino]-phenyl}-propionic acid] | 460 nM |  | 96.5% | 2700 nM
O=C(O)CCc1ccc(NC=C2C(=O)Nc3ccc(Cl)cc32)cc1 [Example 146, 3-{4-[(5-Chloro-2-oxo-1,2-dihydro-indol-3-ylidenemethyl)-amino]-phenyl}-propionic acid] | 510 nM |  | 98.4% | 2070 nM

Further compounds by falling IC50 [2], results first:

IC50 [2] | Compound | IC50 [1] | inhibition at 10 µM ([1]; Homo sapiens) | IC50 ([1]; Homo sapiens)
1120 nM | CCOC(=O)Nc1ccc(NC=C2C(=O)Nc3ccccc32)cc1O [Example 134, {2-Hydroxy-4-[(2-oxo-1,2-dihydro-indol-3-ylidenemethyl)-amino]-phenyl}-carbamic acid ethyl ester] |  | 83.1% | 7390 nM
770 nM | Cc1cccc2c1C(=CNc1ccc(CC(=O)O)cc1)C(=O)N2 [Example 131, {4-[(4-Methyl-2-oxo-1,2-dihydro-indol-3-ylidenemethyl)-amino]-phenyl}-acetic acid] |  | 96.7% | 1550 nM
730 nM | CSc1ccc(NC=C2C(=O)Nc3ccc(Cl)cc32)cc1 [Example 138, 5-Chloro-3-[(4-methylsulfanyl-phenylamino)-methylene]-1,3-dihydro-indol-2-one] |  | 80.9% | 7070 nM
620 nM | CCc1ccc(NC=C2C(=O)Nc3ccc(Cl)cc32)cc1 [Example 149, 5-Chloro-3-[(4-ethyl-phenylamino)-methylene]-1,3-dihydro-indol-2-one] |  | 17.7% | 
600 nM | CCN(CC)Cc1cc(NC=C2C(=O)Nc3ccc(Cl)cc32)ccc1O [Example 109, 5-Chloro-3-[(4-hydoxy-3-(diethylaminomethyl)phenylamino)-methylene]-1,3-dihydro-indol-2-one] |  | 96.5% | 1700 nM
570 nM | O=C1Nc2ccc(Cl)cc2C1=CNc1ccc2[nH]ccc2c1 [Example 110, 5-(5-Chloro-2-oxo-1,2-dihydro-indol-3-ylidenemethylamino)indole] |  | 95% | 1550 nM
530 nM | O=C(O)CCCc1ccc(NC=C2C(=O)Nc3ccccc32)cc1 [Example 139, 4-{4-[(2-Oxo-1,2-dihydro-indol-3-ylidenemethyl)-amino]-phenyl}-butyric acid] |  | 99.3% | 1620 nM
520 nM | Cc1cccc2c1C(=CNc1ccc3c(c1)OCO3)C(=O)N2 [Example 124, 3-(Benzo[1,3]dioxol-5-ylaminomethylene)-4-methyl-1,3-dihydro-indol-2-one] |  | 71.9% | 1960 nM
510 nM | O=C(O)CCc1cccc(NC=C2C(=O)Nc3ccccc32)c1 [Example 141, 3-{3-[(2-Oxo-1,2-dihydro-indol-3-ylidenemethyl)-amino]-phenyl}-propionic acid] |  | 92.6% | 2960 nM
490 nM | CSc1ccc(NC=C2C(=O)Nc3ccccc32)cc1 [Example 136, 3-[(4-Methylsulfanyl-phenylamino)-methylene]-1,3-dihydro-indol-2-one] |  | 63.7% | 2070 nM
470 nM | O=C(O)Cc1ccc(NC=C2C(=O)Nc3ccc(Cl)cc32)cc1 [Example 115, {4-[(5-Chloro-2-oxo-1,2-dihydro-indol-3-ylidenemethyl)-amino]-phenyl}-acetic acid] |  | 98.2% | 3080 nM
270 nM | CSc1ccc(NC=C2C(=O)Nc3cccc(C)c32)cc1 [Example 137, 4-Methyl-3-[(4-methylsulfanyl-phenylamino)-methylene]-1,3-dihydro-indol-2-one] |  | 65.4% | 1670 nM
230 nM | O=C1Nc2ccc(Cl)cc2C1=CNc1ccc(N2CCOCC2)cc1 [Example 106, 5-Chloro-3-[(4-morpholinophenylamino)-methylene]-1,3-dihydro-indol-2-one] | 600 nM | 96.6% | ≤ 1000 nM
210 nM | Cc1cccc2c1C(=CNc1cccc(CCC(=O)O)c1)C(=O)N2 [Example 142, 3-{3-[(4-Methyl-2-oxo-1,2-dihydro-indol-3-ylidenemethyl)-amino]-phenyl}-propionic acid] |  | 99.3% | 4160 nM
190 nM | Cc1cccc2c1C(=CNc1ccc(CCC(=O)O)cc1)C(=O)N2 [Example 145, 3-{4-[(4-Methyl-2-oxo-1,2-dihydro-indol-3-ylidenemethyl)-amino]-phenyl}-propionic acid] | 590 nM | 98.7% | ≤ 1000 nM
150 nM | CCc1cccc(NC=C2C(=O)Nc3cccc(C)c32)c1 [Example 147, 3-[(3-Ethyl-phenylamino)-methylene]-4-methyl-1,3-dihydro-indol-2-one] |  | 71.6% | 5490 nM
